{
  "source": "paper PMC11476419",
  "about": "“Analysis of Punicalin and Punicalagin Interaction with PDIA3 and PDIA1” (International Journal of Molecular Sciences, 2024)",
  "key": {"[1]": {"biological_target": "T1, PDIA1 (Homo sapiens, UniProt P07237)", "T1 construct": "The mature human PDIA1 with an N-terminal His6x-tag was expressed and purified; His6 (N); made in house", "T1 sequence (P07237 18-508)": "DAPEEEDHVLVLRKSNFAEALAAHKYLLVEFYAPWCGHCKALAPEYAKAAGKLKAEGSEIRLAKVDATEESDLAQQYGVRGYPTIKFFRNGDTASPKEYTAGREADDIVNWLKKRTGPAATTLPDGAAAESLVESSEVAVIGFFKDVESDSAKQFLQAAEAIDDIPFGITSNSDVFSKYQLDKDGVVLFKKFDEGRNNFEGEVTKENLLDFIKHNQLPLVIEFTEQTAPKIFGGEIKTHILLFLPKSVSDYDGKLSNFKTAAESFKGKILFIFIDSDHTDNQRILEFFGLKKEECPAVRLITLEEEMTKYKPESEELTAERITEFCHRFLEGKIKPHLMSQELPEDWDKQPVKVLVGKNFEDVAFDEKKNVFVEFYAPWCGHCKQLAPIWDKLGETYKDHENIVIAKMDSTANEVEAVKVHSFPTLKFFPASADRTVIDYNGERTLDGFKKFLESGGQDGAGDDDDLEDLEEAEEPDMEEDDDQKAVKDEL", "test": "Insulin turbidity assay, disulfide reductase activity", "assay_type": "biochemical", "conditions": "insulin substrate, PDIA1 800 nM, reducing conditions", "description": "(§1) To further evaluate the inhibitory effect of punicalin and punicalagin on the enzymatic activity of the two proteins, we performed a different assay using insulin, a physiologically more appropriate substrate. The results obtained are reported in Figure 4 and show again a lesser inhibitory effect of punicalin compared to punicalagin, as observed with the glutathione-based assay.\nPDI disulfide reductase activity was assayed by measuring the reduction of insulin catalyzed by PDIs with DTT. A 50 μM stock solution of each PDI was reduced using TCEP (5 mM final concentration) for 90 min at room temperature. […] After incubation, an equal volume of the 2× reaction mixture (consisting of DTT 50 μM and human insulin 0.32 mM) was added. Protein activity was evaluated by monitoring the increase in turbidity of the solutions at 600 nm.\n(§2) In both assays, the inhibition constants were extrapolated by GraphPad Prism 8.0 software (GraphPad Software, San Diego, CA, USA), plotting the obtained data as logarithm dose–response curves."}, "[2]": {"biological_target": "T2, PDIA3 (Homo sapiens, UniProt P30101)", "T2 construct": "The mature recombinant form (devoid of the N-terminal presence) of the human PDIA3 protein was expressed and purified; made in house", "T2 sequence (P30101 25-505)": "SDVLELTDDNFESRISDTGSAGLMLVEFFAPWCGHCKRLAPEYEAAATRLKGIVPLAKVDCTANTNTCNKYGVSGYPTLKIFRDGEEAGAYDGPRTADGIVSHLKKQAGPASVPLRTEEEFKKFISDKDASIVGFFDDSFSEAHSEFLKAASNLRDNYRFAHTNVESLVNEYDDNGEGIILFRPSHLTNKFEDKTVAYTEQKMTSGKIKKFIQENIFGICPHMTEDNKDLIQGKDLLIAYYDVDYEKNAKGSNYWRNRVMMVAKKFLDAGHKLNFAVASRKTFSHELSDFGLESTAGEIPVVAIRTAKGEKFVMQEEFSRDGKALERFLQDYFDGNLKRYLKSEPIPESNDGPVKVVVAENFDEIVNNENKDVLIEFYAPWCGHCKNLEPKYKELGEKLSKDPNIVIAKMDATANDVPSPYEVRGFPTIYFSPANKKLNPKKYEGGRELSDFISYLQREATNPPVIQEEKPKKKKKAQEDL", "test": "Insulin turbidity assay, disulfide reductase activity", "assay_type": "biochemical", "conditions": "insulin substrate, PDIA3 1600 nM, reducing conditions", "description": "as §1\nPDI disulfide reductase activity was assayed by measuring the reduction of insulin catalyzed by PDIs with DTT. A 50 μM stock solution of each PDI was reduced using TCEP (5 mM final concentration) for 90 min at room temperature. Aliquots of the stock solution were diluted in the incubation mixture (PDIA1 1.6 µM and PDIA3 3.2 µM) containing sodium phosphate buffer (100 mM sodium phosphate, 2 mM EDTA, pH 7.0) added with punicalin/punicalagin (concentration ranging from 0 to 50 µM) and incubated at 37 °C for 1 h. After incubation, an equal volume of the 2× reaction mixture (consisting of DTT 50 μM and human insulin 0.32 mM) was added. Protein activity was evaluated by monitoring the increase in turbidity of the solutions at 600 nm.\nas §2"}, "[3]": {"biological_target": "T1, PDIA1", "test": "Differential scanning fluorimetry (protein thermal shift)", "assay_type": "binding", "conditions": "PDIA1, compound 20 µM", "description": "(§3) The effect of punicalin and punicalagin on the stability of both proteins was evaluated by differential scanning fluorimetry (DSF). Initially, PDIA1 and PDIA3 were incubated at 25 °C for 20 min with both substances at 5 µM and 20 µM concentrations. […] The reading was optimized at intervals of 0.2 °C every 5 s. Once the fluorescence profile was obtained, the data were analyzed with the GraphPad prism program, by either fitting data with a Boltzmann equation or calculating the first derivative. In DSF analyses, a gradual increase in fluorescence is observed, due to a conformational change in the protein, which reaches a maximum value and then decreases because of protein precipitation.\n(§4) To evaluate Tm, we focused the attention on the main transition, and thus we fitted, with a Boltzmann equation, the data in the range of 25–55 °C for PDIA3 and in the range of 45–70 °C for PDIA1. Again, the two substances show a destabilizing effect, which was more evident for PDIA3 than for PDIA1. In fact, punicalagin and punicalin at a 20 µM concentration cause a shift of Tm of at least 6 °C in the case of PDIA3, while this is approximately 3 °C for PDIA1 (Figure 7).\n(§5) Protein stability in the absence and presence of punicalagin/punicalin was tested by means of the fluorescence-based thermal stability assay or differential scanning fluorimetry (DSF) developed by Pantoliano and coworkers. DSF records the fluorescence emission signal from the binding of a dye (SYPRO orange) to the exposed hydrophobic patches upon protein unfolding. Fluorescence measurements were performed using a CFX96 Connect RT-PCR instrument (BioRad, Hercules, CA, USA). Aliquots of 18 μL of protein solution (2 μM), freshly diluted in Tris Buffered saline (50 mM TrisHCl, pH 8.0, 150 mM NaCl) containing 0.1 mM DTT, 0.2 mM EDTA, and 1: 1000 dilution of SYPRO Orange (50 mM stock solution in DMSO), were distributed in a 96-well plate. Sample wells were added with punicalagin or punicalin at a final concentration of 5 uM or 20 μM by adding 2 μL of a 10-fold concentrated freshly prepared stock solution. As control, the protein solution was added with 2 μL of the dilution buffer. A melting point analysis was recorded by increasing the temperature from 25 to 70 °C with an increment of 0.2 °C every 5 s and reading, at each temperature, the fluorescence in fluorescence resonance energy transfer mode (FRET). Each measure was the average of three sample well readings, and each DSF experiment was repeated at least three times. To calculate Tm values, DSF data from the melting curve were exported and fitted to a Boltzmann equation using GraphPad software. The effect of punicalagin and punicalin was evaluated comparing the Tm values in the presence and absence of each molecule."}, "[4]": {"biological_target": "T2, PDIA3", "test": "Differential scanning fluorimetry (protein thermal shift)", "assay_type": "binding", "description": "as §3, §4, §5"}, "[5]": {"biological_target": "T1, PDIA1", "set-up": "method as in Paglia et al. [40]", "conditions": "reduced PDIA1; ref Paglia et al. [40]; cited from earlier work"}, "[6]": {"biological_target": "T2, PDIA3", "set-up": "method as in Paglia et al. [40]", "conditions": "reduced PDIA3; ref Paglia et al. [40]; cited from earlier work"}, "[7]": {"tested_on": "PDIA3", "set-up": "method as in PMID 37686085", "conditions": "30 µM, 24 h after treatment; ref [34]; cited from earlier work"}},
  "note": "pIC50: −log10 of the molar value.",
  "data": [
    {"smiles": "O=C1O[C@H]2[C@@H]3OC(=O)c4cc(O)c(O)c(O)c4-c4c(O)c(O)c5oc(=O)c6c(c(O)c(O)c7oc(=O)c4c5c76)-c4c(cc(O)c(O)c4O)C(=O)OC[C@H]3OC(O)[C@@H]2OC(=O)c2cc(O)c(O)c(O)c2-c2c1cc(O)c(O)c2O", "note": "(mixture of isomers) [Punicalagin, punicalagin]", "values": [
      {"measurement": "pIC50", "setting": "[1]", "result": 4.86},
      {"measurement": "pIC50", "setting": "[2]", "result": 5.06},
      {"measurement": "shift towards lower temperature of second main transition (first-derivative graph)", "setting": "[3]", "result": "about 5 °C"},
      {"measurement": "shift of Tm (destabilizing, Boltzmann fit)", "setting": "[3]; fit range 45–70 °C", "result": "approximately 3 °C"},
      {"measurement": "left shift of first transition (first-derivative graph)", "setting": "[4]; PDIA3, compound 20 µM", "result": "about 3 °C"},
      {"measurement": "shift towards lower temperature of second transition (first-derivative graph)", "setting": "[4]; PDIA3, compound 20 µM", "result": "more than 10 °C"},
      {"measurement": "shift of Tm (destabilizing, Boltzmann fit)", "setting": "[4]; PDIA3, compound 20 µM, fit range 25–55 °C", "result": "at least 6 °C"},
      {"measurement": "Tm of PDIA3 after addition of compound", "setting": "[4]; PDIA3 alone Tm 46 °C", "result": "below 40 °C"},
      {"measurement": "Stern–Volmer constant (KSV)", "setting": "[5]", "result": "97.9 ± 2.1", "unit": "M^−1 × 10^3"},
      {"measurement": "Stern–Volmer constant (KSV)", "setting": "[6]", "result": "157.1 ± 1.9", "unit": "M^−1 × 10^3"},
      {"measurement": "formation of PDIA3 protein aggregates", "setting": "[7]", "result": "induced the formation of protein aggregates"}
    ]}
  ]
}
